# Where “and” joins values, the source holds several entries; their conditions need not be identical. Equal entries are not always repeated. Entries after “also recorded” stand apart in the source; their conditions may differ. Where two headings read alike, the source gives them in different places.
# What was measured:
# lactoperoxidase = lactoperoxidase oxidation (mediated by peroxide); format: biochemical; details: physiological conditions (neutral pH)
# [1] = system: incision-induced hyperalgesia; test: Brennan incisional model, prophylactic paradigm; format: in vivo, rat
# From the text: Two incisional pain models were used to assess Compound 1 effects on hyperalgesia. The first model is referred to as the Brennan model in which, under anesthesia, a 1 cm longitudinal incision to the skin and underlying fascia of a rat hindpaw is made. The second is a variation but is a more invasive procedure in which the skin and muscle are spread apart using forceps which creates a longer-lasting hypersensitivity.
# Using the Brennan protocol and a prophylactic paradigm, Compound 1 (3 doses given PO) or vehicle was administered 15 min prior to incision. At the 24-, 48-, and 72-h time points post-incision, mechanical thresholds were obtained (manual von Frey filament, using up/down method).
# In a subsequent experiment, the same paradigm was used with Compound 1 administered at a dose of 30 mg/kg PO along with positive control group consisting of celecoxib (30 mg/kg PO), morphine (10 mg/kg SC), and vehicle.
# [2] = system: STZ-induced mechanical allodynia; test: streptozotocin (STZ)-induced diabetic rats, first experiment; format: in vivo, rat
# Method: FIG. 14 illustrates non-limiting reversal of mechanical hypersensitivity by Compound 1 in a diabetic neuropathy model, in accordance with various embodiments. Streptozotocin (STZ) destroys insulin-producing cells and generates a diabetic phenotype in […]. Animals were dosed with STZ on day −7. By day 0 animals are hyperglycemic and hyperalgesic (day 0 BL).
# Experiments were conducted to determine the effect of Compound 1 in streptozotocin (STZ)-induced diabetic rats. In the first experiment, after obtaining mechanical threshold baselines, STZ (50 mg/kg IV) was administered (Day −7). Two days later, blood glucose levels were measured and animals that were hyperglycemic (>250 mg/dL) continued in the study. On Day 0 the baseline for mechanical thresholds prior to dosing with test articles was established for the rats. Compound 1 (10, 30, and 100 mg/kg PO), gabapentin (100 mg/kg PO) or vehicle was then administered daily for 5 days. On Day 0 mechanical thresholds were obtained at 1, 3, and 6 h post-dose. On Day 1 mechanical thresholds were measured immediately prior to dosing and then 3 h post-dose. The same regimen was followed on Day 3.
# [3] = rat 7 day repeat IV dose study; format: in vivo; details: 7 day IV
# Method: In a third study, SD rats (3/sex/group) were administered Compound 1 IV via the tail vein for 7 days at doses of 0, 75 or 150 mg/kg/day. The vehicle was 15% dimethylacetamide, 85% phosphate buffered saline. Blood was collected from all surviving animals for toxicokinetic analysis approximately 2 hours after the last dose on Day 7.
# [4] = dog pharmacokinetics, single PO (10 mg/kg) and IV (3 mg/kg) dose; format: in vivo
# Method: The objective of the first single dose non-GLP study in dogs was to determine the pharmacokinetics and bioavailability of Compound 1 after a single oral (gavage) or single intravenous (IV) dose in dogs. The test article formulation was administered to three male dogs orally via gavage at a dose level of 10 mg/kg (dosing volume of 2 mL/kg body weight). Following a wash-out period of a minimum of three days, the same three dogs were administered the test article formulation via an IV bolus push over approximately 1-2 minutes at a dose level of 3 mg/kg (dosing volume of 0.5 mL/kg). The vehicle for oral gavage dosing was 0.5% HPMC; the vehicle for IV injection was sterile phosphate buffered saline (PBS; pH 7.4). […] Animals were returned to quarantine after the last blood collection.
# [5] = dog single oral dose MTD study; format: in vivo; details: for Average Compound 1 Concentration in Dog Plasma: N = 2
# Method: Using a pyramiding dose schedule, dose levels of 250, 350 and 500 mg/kg were administered to 2 dogs/sex (after a washout period of at least three days, the same animals were dosed with the next dose level). The dose volume was 10 mL/kg body weight. The vehicle was 0.5% aqueous HPMC.
# [6] = rat single dose excretion/metabolite study (urine and feces); format: in vivo
# From the text: Further metabolism work in additional species will be undertaken.
# [7] = rat 7-day repeat dose PO study (toxicokinetics)
# [8] = male dogs, 10 mg/kg oral gavage
smiles,measurement,setting,value
"CC1(C)SC(Nc2ccccc2O)=N[C@@H]1C(=O)O.Cl [Compound 1, (R)-2-(2-hydroxyphenylamino)-5,5-dimethyl-4,5-dihydrothiazole-4-carboxylic acid mono-hydrochloride]",removal of peroxynitrite in lactoperoxidase oxidation,lactoperoxidase,catalytically remove peroxynitrite
same,"hyperalgesia, effect relative to vehicle","[1]; 10 mg/kg PO single dose 15 min prior to incision, mono-hydrochloride",statistically significant reversal of hyperalgesia; also recorded: statistically significant effect
same,"hyperalgesia, effect relative to vehicle",[1]; 30 mg/kg PO single dose,full efficacy
same,"hyperalgesia, mechanical thresholds (von Frey) relative to vehicle","[1]; 3 doses PO, 15 min prior to incision, 24, 48, 72 h post-incision",reversal of hyperalgesia in a dose-dependent manner
same,reversal of allodynia (mechanical thresholds),"[2]; 10, 30, 100 mg/kg PO daily, subsequent days",statistically-significant
same,reversal of allodynia (mechanical thresholds),"[2]; 10, 30, 100 mg/kg PO, Day 0",non-significant reversal of allodynia
same,efficacy compared with gabapentin,"[2]; repeated dosing, gabapentin 100 mg/kg PO, mono-hydrochloride",comparable to gabapentin
same,"effect on allodynia, STZ diabetic neuropathy model (summary)","[2]; streptozotocin-induced, mono-hydrochloride",alleviates allodynia; also recorded: blocks STZ-induced mechanical allodynia
same,Conc in rat plasma,"[3]; 75 mg/kg, F, 2 h after last dose Day 7, individual animals, mono-hydrochloride, 75 mg/kg",2.67 µg/mL and 3.25 µg/mL and 3.18 µg/mL
same,concentration at 2 h,"[3]; 75 mg/kg, F, 2 h after last dose Day 7, individual animals, mono-hydrochloride, 75 mg/kg, read-out: Conc in rat plasma",12.20 µM and 11.94 µM
same,Conc in rat plasma,"[3]; 75 mg/kg, M, 2 h after last dose Day 7, individual animals, mono-hydrochloride, 75 mg/kg",2.35 µg/mL and 2.38 µg/mL and 4.31 µg/mL
same,concentration at 2 h,"[3]; 75 mg/kg, M, 2 h after last dose Day 7, individual animals, mono-hydrochloride, 75 mg/kg, read-out: Conc in rat plasma",8.94 µM and 16.18 µM
same,Conc in rat plasma,"[3]; 150 mg/kg, F, 2 h after last dose Day 7, individual animals, mono-hydrochloride, 150 mg/kg",5.99 µg/mL and 2.43 µg/mL and 5.53 µg/mL
same,concentration at 2 h,"[3]; 150 mg/kg, F, 2 h after last dose Day 7, individual animals, mono-hydrochloride, 150 mg/kg, read-out: Conc in rat plasma",22.49 µM and 9.12 µM and 20.76 µM
same,Conc in rat plasma,"[3]; 150 mg/kg, M, 2 h after last dose Day 7, individual animals, mono-hydrochloride, 150 mg/kg",4.28 µg/mL and 6.91 µg/mL and 6.56 µg/mL
same,concentration at 2 h,"[3]; 150 mg/kg, M, 2 h after last dose Day 7, individual animals, mono-hydrochloride, 150 mg/kg, read-out: Conc in rat plasma",25.95 µM and 24.63 µM
same,concentration at 2 h,"[3]; female, Sprague-Dawley (SD), rat, plasma, iv, 75 mg/kg, 75 mg/kg, F, 2 h after last dose Day 7, individual animals, read-out: Conc in rat plasma",2670 ng/mL and 10 µM
same,concentration at 2 h,"[3]; female, Sprague-Dawley (SD), rat, plasma, iv, 75 mg/kg, 75 mg/kg, F, 2 h after last dose Day 7, read-out: Mean Conc in rat plasma",3.03 µg/mL
same,concentration at 2 h,"[3]; female, Sprague-Dawley (SD), rat, plasma, iv, 150 mg/kg, 150 mg/kg, F, 2 h after last dose Day 7, read-out: Mean Conc in rat plasma",4.65 µg/mL
same,concentration at 2 h,"[3]; male, Sprague-Dawley (SD), rat, plasma, iv, 75 mg/kg, 75 mg/kg, M, 2 h after last dose Day 7, individual animals, read-out: Conc in rat plasma",2350 ng/mL and 8.82 µM
same,concentration at 2 h,"[3]; male, Sprague-Dawley (SD), rat, plasma, iv, 75 mg/kg, 75 mg/kg, M, 2 h after last dose Day 7, read-out: Mean Conc in rat plasma",3.01 µg/mL
same,concentration at 2 h,"[3]; male, Sprague-Dawley (SD), rat, plasma, iv, 150 mg/kg, 150 mg/kg, M, 2 h after last dose Day 7, individual animals, read-out: Conc in rat plasma",4280 ng/mL and 16.1 µM
same,concentration at 2 h,"[3]; male, Sprague-Dawley (SD), rat, plasma, iv, 150 mg/kg, 150 mg/kg, M, 2 h after last dose Day 7, read-out: Mean Conc in rat plasma",5.92 µg/mL
same,epimerization in vivo (chiral column),[4]; dog plasma,did not provide any evidence of epimerization
same,half-life,"[4]; dog, plasma, male dogs, 10 mg/kg oral gavage, read-out: median t1/2 (converted)",1.4 h
same,tmax,"[4]; male dogs, 3 mg/kg IV bolus",about 5 minutes
same,average oral Cmax,[4]; [8],12 µg/mL
same,tmax,[4]; [8],about 1 hour
same,mean oral bioavailability,"[4]; male dogs, 10 mg/kg oral vs 3 mg/kg IV",72%
same,Average Compound 1 Concentration in Dog Plasma,"[5]; 250 mg/kg PO (Dose 1; Day 1), 0.5 h, F",28 µg/mL
same,Average Compound 1 Concentration in Dog Plasma,"[5]; 250 mg/kg PO (Dose 1; Day 1), 0.5 h, M",71 µg/mL
same,Average Compound 1 Concentration in Dog Plasma,"[5]; 250 mg/kg PO (Dose 1; Day 1), 1 h, F",54 µg/mL
same,Average Compound 1 Concentration in Dog Plasma,"[5]; 250 mg/kg PO (Dose 1; Day 1), 1 h, M",110 µg/mL
same,Average Compound 1 Concentration in Dog Plasma,"[5]; 250 mg/kg PO (Dose 1; Day 1), 2 h, F",46 µg/mL
same,Average Compound 1 Concentration in Dog Plasma,"[5]; 250 mg/kg PO (Dose 1; Day 1), 2 h, M",91 µg/mL
same,Average Compound 1 Concentration in Dog Plasma,"[5]; 350 mg/kg PO (Dose 3; Day 9), 0.5 h, F",67 µg/mL
same,Average Compound 1 Concentration in Dog Plasma,"[5]; 350 mg/kg PO (Dose 3; Day 9), 0.5 h, M",134 µg/mL
same,Average Compound 1 Concentration in Dog Plasma,"[5]; 350 mg/kg PO (Dose 3; Day 9), 1 h, F",154 µg/mL
same,Average Compound 1 Concentration in Dog Plasma,"[5]; 350 mg/kg PO (Dose 3; Day 9), 1 h, M",220 µg/mL
same,Average Compound 1 Concentration in Dog Plasma,"[5]; 350 mg/kg PO (Dose 3; Day 9), 2 h, F",119 µg/mL
same,Average Compound 1 Concentration in Dog Plasma,"[5]; 350 mg/kg PO (Dose 3; Day 9), 2 h, M",153 µg/mL
same,Average Compound 1 Concentration in Dog Plasma,"[5]; 500 mg/kg PO (Dose 2; Day 4), 0.5 h, F",87 µg/mL
same,Average Compound 1 Concentration in Dog Plasma,"[5]; 500 mg/kg PO (Dose 2; Day 4), 0.5 h, M",111 µg/mL
same,Average Compound 1 Concentration in Dog Plasma,"[5]; 500 mg/kg PO (Dose 2; Day 4), 1 h, F",136 µg/mL
same,Average Compound 1 Concentration in Dog Plasma,"[5]; 500 mg/kg PO (Dose 2; Day 4), 1 h, M",191 µg/mL
same,Average Compound 1 Concentration in Dog Plasma,"[5]; 500 mg/kg PO (Dose 2; Day 4), 2 h, F",124 µg/mL
same,Average Compound 1 Concentration in Dog Plasma,"[5]; 500 mg/kg PO (Dose 2; Day 4), 2 h, M",193 µg/mL
same,tolerability,"[5]; dogs, single oral (gavage) dose of 500 mg/kg, emesis in three of the four dosed animals",not tolerated
same,administered compound recovered unchanged,"[6]; rat single dose, urine and feces",5-15%
same,form excreted in urine and feces,[6]; rats,primarily as a sulfate conjugate
same,MTD,"[7]; female rats, oral gavage, 7 days",2000 mg/kg
same,Cmax,"[7]; rat 7 Day PO, 2000 mg/kg, Seventh Daily Dose, mean",119 µg/mL

# From patent US20200289474A1, “METHODS OF TREATING PAIN WITH A THIAZOLINE ANTI-HYPERALGESIC” (priority 2019, published 2020)
